ChEMBL document CHEMBL4342507, “Targeting YAP Degradation by a Novel 1,2,4-Oxadiazole Derivative via Restoration of the Function of the Hippo Pathway” (ACS Med Chem Lett, 2020)
Activity calls are given as the source filed them. No cut-off for these calls is given here.

Key:
[1] = target: T1, Serine/threonine-protein kinase LATS1 (Homo sapiens) (UniProt O95835); assay: Activation of LATS1 in human PC3 cells assessed as induction of YAP degradation by measuring suppression of YAP protein expression at 0.25 to 1.5 uM measured after 12 to 24 hrs by immunoblotting analysis; format: cell-based
T1 sequence (whole entry): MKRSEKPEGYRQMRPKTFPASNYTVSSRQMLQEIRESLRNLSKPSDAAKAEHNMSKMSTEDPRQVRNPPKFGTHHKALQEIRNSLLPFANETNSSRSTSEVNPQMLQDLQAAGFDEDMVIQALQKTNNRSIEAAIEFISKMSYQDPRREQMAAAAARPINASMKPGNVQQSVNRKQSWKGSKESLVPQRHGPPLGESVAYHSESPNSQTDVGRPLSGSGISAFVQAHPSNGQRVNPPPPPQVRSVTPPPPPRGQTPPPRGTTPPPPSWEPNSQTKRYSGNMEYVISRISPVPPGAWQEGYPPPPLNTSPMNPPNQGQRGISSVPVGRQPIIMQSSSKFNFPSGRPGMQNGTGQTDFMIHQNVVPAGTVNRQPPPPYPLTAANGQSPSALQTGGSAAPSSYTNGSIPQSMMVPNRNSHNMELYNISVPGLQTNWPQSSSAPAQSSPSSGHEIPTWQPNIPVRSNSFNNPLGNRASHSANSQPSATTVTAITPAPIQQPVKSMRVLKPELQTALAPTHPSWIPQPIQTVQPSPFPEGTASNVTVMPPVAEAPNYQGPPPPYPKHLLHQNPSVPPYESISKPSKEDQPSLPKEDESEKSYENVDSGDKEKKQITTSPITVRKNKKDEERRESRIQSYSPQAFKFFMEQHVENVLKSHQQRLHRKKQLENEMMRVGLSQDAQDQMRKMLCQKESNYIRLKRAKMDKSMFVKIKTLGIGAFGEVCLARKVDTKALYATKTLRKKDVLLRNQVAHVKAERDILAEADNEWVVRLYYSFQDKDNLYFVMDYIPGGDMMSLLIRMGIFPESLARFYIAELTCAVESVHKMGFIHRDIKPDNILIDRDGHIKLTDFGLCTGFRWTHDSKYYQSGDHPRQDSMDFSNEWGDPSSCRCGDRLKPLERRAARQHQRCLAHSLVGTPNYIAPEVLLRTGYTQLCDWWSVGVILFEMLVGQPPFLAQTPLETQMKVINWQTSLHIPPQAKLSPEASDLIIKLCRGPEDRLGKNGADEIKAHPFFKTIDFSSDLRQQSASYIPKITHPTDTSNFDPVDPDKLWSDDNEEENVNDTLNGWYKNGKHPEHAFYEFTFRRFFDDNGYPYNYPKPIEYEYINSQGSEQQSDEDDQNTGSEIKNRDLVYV

MCF7 = assay: Cytotoxicity against human MCF7 cells assessed as reduction in cell viability measured after 72 hrs by MTT assay; format: functional, cell-based; details: MCF7, 72 h
[2] = target: T1, Serine/threonine-protein kinase LATS1 (Homo sapiens); assay: Activation of LATS1 in human SUM159 cells assessed as increase in phosphorylation at Thr1079 residue measured after 12 hrs by Western blot analysis; format: cell-based
[3] = Acute toxicity in athymic Nude-Foxn1nu BALB/c mouse xenografted with human MDA-MB-231 cells assessed as effect on serum total cholesterol level level at 200 mg/kg, po administered once daily via gavage for 14 days; format: organism-based; details: in vivo, 336 h
[4] = target: Serine/threonine-protein kinase 3/4 (Homo sapiens) (UniProt Q13043+Q13188); assay: Activation of MST1/2 in human MDA-MB-231 cells assessed as effect on phosphorylation at T183/T180 residues at 0.25 to 1.5 uM measured after 24 hrs by Western blot analysis; format: cell-based
SUM-159-PT [5] = assay: Cytostatic activity against human SUM159 cells assessed as cell viability at concentration of greater than IC50 measured up to 72 hrs by MTT assay; format: functional, cell-based
SUM-159-PT [6] = assay: Cytotoxicity against human SUM159 cells assessed as reduction in cell viability measured after 72 hrs by MTT assay; format: functional, cell-based
PC-9 [7] = assay: Downregulation of TAZ protein expression in human PC9 cells at 0.25 to 1.5 uM measured after 12 to 24 hrs by immunoblotting analysis; format: functional, cell-based
[8] = target: T1, Serine/threonine-protein kinase LATS1 (Homo sapiens); assay: Activation of LATS1 in human MDA-MB-231 cells assessed as increase in YAP phosphorylation at Ser397 at 0.25 to 1.5 uM measured after 24 to 48 hrs by immunoblotting analysis; format: cell-based
MDA-MB-231 [9] = assay: Effect on MST2 expression in human MDA-MB-231 cells at 0.25 to 1.5 uM measured after 24 hrs by Western blot analysis; format: functional, cell-based
MDA-MB-231 [10] = assay: Effect on MST1 expression in human MDA-MB-231 cells at 0.25 to 1.5 uM measured after 24 hrs by Western blot analysis; format: functional, cell-based
[11] = target: T1, Serine/threonine-protein kinase LATS1 (Homo sapiens); assay: Activation of LATS1 in human MDA-MB-231 cells assessed as increase in phosphorylation at Thr1079 residue measured after 24 hrs by Western blot analysis; format: cell-based
PC-3 [12] = assay: Cytostatic activity against human PC3 cells assessed as cell viability at concentration of greater than IC50 measured up to 72 hrs by MTT assay; format: functional, cell-based
PC-9 [13] = assay: Cytostatic activity against human PC9 cells assessed as cell viability at concentration of greater than IC50 measured up to 72 hrs by MTT assay; format: functional, cell-based
MDA-MB-231 [14] = assay: Cytotoxicity against human MDA-MB-231 cells assessed as reduction in cell viability measured after 72 hrs by MTT assay; format: functional, cell-based
[15] = Acute toxicity in athymic Nude-Foxn1nu BALB/c mouse xenografted with human MDA-MB-231 cells assessed as effect on serum creatinine level at 200 mg/kg, po administered once daily via gavage for 14 days; format: organism-based; details: in vivo, 336 h
MDA-MB-231 [16] = assay: Cytostatic activity against human MDA-MB-231 cells assessed as cell viability at concentration of greater than IC50 measured up to 72 hrs by MTT assay; format: functional, cell-based
PC-9 [17] = assay: Cytotoxicity against human PC9 cells assessed as reduction in cell viability at 0.2 to 1.2 uM by MTT assay; format: functional, cell-based; details: TDE = time-dependent effect
[18] = target: T1, Serine/threonine-protein kinase LATS1 (Homo sapiens); assay: Activation of LATS1 in human […] cells assessed as increase in YAP phosphorylation at Ser397 at 0.25 to 1.5 uM measured after 12 to 24 hrs by immunoblotting analysis; format: cell-based
PC-3 [19] = assay: Effect on MST1 expression in human PC3 cells at 0.25 to 1.5 uM measured after 24 hrs by Western blot analysis; format: functional, cell-based
Homo sapiens = species on record: Homo sapiens; assay: Activation of MOB in human PC3 cells assessed as phosphorylation at Thr35 residue at 0.25 to 1.25 uM measured after 24 hrs by Western blot analysis; format: cell-based
[20] = target: T1, Serine/threonine-protein kinase LATS1 (Homo sapiens); assay: Activation of LATS1 in human SUM159 cells assessed as increase in YAP phosphorylation at Ser397 at 0.25 to 1.5 uM measured after 12 to 24 hrs by immunoblotting analysis; format: cell-based
[21] = target: T1, Serine/threonine-protein kinase LATS1 (Homo sapiens); assay: Activation of LATS1 in human MDA-MB-231 cells assessed as increase in phosphorylation at Ser909 residue measured after 24 hrs by Western blot analysis; format: cell-based

Sequence of Serine/threonine-protein kinase 3/4 (Homo sapiens) (Q13043 whole entry, looked up): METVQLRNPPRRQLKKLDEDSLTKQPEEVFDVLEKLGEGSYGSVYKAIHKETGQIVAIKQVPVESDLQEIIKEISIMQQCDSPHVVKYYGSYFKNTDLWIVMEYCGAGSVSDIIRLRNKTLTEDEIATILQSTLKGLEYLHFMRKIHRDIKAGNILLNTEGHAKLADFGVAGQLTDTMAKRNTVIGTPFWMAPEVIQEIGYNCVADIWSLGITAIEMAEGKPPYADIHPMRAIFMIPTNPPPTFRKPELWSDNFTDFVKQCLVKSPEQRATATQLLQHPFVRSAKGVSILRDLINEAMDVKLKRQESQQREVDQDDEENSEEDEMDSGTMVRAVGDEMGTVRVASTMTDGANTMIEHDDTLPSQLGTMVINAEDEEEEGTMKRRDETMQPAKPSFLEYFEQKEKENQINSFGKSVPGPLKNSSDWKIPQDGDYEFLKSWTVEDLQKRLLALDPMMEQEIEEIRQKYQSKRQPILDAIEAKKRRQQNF
Sequence of Serine/threonine-protein kinase 3/4 (Homo sapiens) (Q13188 whole entry, looked up): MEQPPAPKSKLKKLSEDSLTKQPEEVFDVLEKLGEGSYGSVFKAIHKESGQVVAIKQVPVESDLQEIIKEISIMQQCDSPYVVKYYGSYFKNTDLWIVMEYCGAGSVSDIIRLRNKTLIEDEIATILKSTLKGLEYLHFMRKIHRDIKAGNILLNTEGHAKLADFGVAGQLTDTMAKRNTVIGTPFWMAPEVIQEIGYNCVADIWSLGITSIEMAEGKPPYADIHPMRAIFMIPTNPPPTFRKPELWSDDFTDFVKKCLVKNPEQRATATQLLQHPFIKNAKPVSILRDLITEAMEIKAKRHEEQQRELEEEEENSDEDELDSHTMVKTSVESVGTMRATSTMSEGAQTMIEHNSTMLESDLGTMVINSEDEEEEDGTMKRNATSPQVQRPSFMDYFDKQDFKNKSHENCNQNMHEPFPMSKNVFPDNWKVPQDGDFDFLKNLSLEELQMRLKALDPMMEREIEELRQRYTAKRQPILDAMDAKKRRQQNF

CC(=O)Nc1ccc(NC(=O)Nc2cccc(-c3nc(-c4ccc(NC(=O)c5cccnc5)cc4Cl)no3)c2)cc1C(F)(F)F
Activity [1]: Active
IC50 (MCF7): > 1200 nM
Activity [2]: Dose-dependent effect
Activity [3]: Non-Toxic
Activity [4]: inactive
Activity (SUM-159-PT [5]): Active
Activity (SUM-159-PT [6]): Dose-dependent effect
IC50 (SUM-159-PT [6]): 400 to 800 nM
inhibition (PC-9 [7]): Active
Activity [8]: inactive
Activity (MDA-MB-231 [9]): inactive
Activity (MDA-MB-231 [10]): inactive
Activity [11]: Dose-dependent effect
Activity (PC-3 [12]): Active
Activity (PC-9 [13]): Active
Activity (MDA-MB-231 [14]): Dose-dependent effect
IC50 (MDA-MB-231 [14]; MDA-MB-231, 72 h): 400 to 800 nM
Activity [15]: Non-Toxic
Activity (MDA-MB-231 [16]): Active
Activity (PC-9 [17]): Tde
Activity [18]: Active
Activity (PC-3 [19]): inactive
Activity (Homo sapiens): inactive
Activity [20]: Active
Activity [21]: Dose-dependent effect
